Reference: patent US7825256B2, “Inducible nitric oxide synthase dimerization inhibitors” (Kalypsys, Inc., priority 2004, dated 2010)

The molecules below were run against T1, hiNOS (Homo sapiens, UniProt P35228) (assay: DAN assay, hiNOS expressed in transiently transfected HEK293 cells). Details: HEK293 cells transiently transfected with hiNOS.
T1 construct: expressed in transfected cells; host or cells: HEK293
Assay type: cell-based
Description: The source of nitric oxide synthase (NOS) enzyme can be generated in several ways including induction of endogenous iNOS using cytokines and/or lipopolysaccharide (LPS) in various cell types known in the art. Alternatively, the gene encoding the enzyme can be cloned and the enzyme can be generated in cells via heterologous expression from a transient or stable expression plasmid with suitable features for protein expression as are known in the art. Enzymatic activity (nitric oxide production) is calcium independent for iNOS, while the constitutive NOS isoforms, nNOS and eNOS, become active with the addition of various cofactors added to cellular media or extract as are well known in the art. Enzymes specified in Table 1 were expressed in HEK293 cells transiently transfected with the indicated NOS isoform.
A major metabolic pathway for nitric oxide is to nitrate and nitrite, which are stable metabolites within tissue culture, tissue, plasma, and urine (S Moncada, A Higgs, N Eng J Med 329, 2002 (1993)).
The level of nitrate or nitrite in the specimen can be quantified by any method known in the art which provides adequate sensitivity and reproducibility. A variety of protocols have also been described for detecting and quantifying nitrite and nitrate levels in biological fluids by ion chromatography (e.g., S A Everett et al., J. Chromatogr. 706, 437 (1995); J M Monaghan et al., J. Chromatogr. 770, 143 (1997)), high-performance liquid chromatography (e.g., M Kelm et al., Cardiovasc. Res. 41, 765 (1999)), and capillary electrophoresis (M A Friedberg et al., J. Chromatogr. 781, 491 (1997)). For example, 2,3-diaminonaphthalene reacts with the nitrosonium cation that forms spontaneously from NO to form the fluorescent product […]. Using 2,3-diaminonaphthalene (“DAN”), researchers have developed a rapid, quantitative fluorometric assay that can detect from 10 nM to 10 μM nitrite and is compatible with a multi-well microplate format. […] DAN reacts with nitrite ion and gives fluorescent […] (M C Carré et al., Analysis 27, 835-838 (1999)). Table 1 provides the test results of various compounds of the subject invention using the DAN assay.
A specimen can be processed prior to determination of nitrate or nitrite as required by the quantification method, or in order to improve the results, or for the convenience of the investigator. For example, processing can involve centrifuging, filtering, or homogenizing the sample. If the sample is whole blood, the blood can be centrifuged to remove cells and the nitrate or nitrite assay performed on the plasma or serum fraction. If the sample is tissue, the tissue can be dispersed or homogenized by any method known in the art prior to determination of nitrate or nitrite. It may be preferable to remove cells and other debris by centrifugation or another method and to determine the nitrate or nitrite level using only the fluid portion of the sample, or the extracellular fluid fraction of the sample. The sample can also be preserved for later determination, for example by freezing of urine or plasma samples. When appropriate, additives may be introduced into the specimen to preserve or improve its characteristics for use in the nitrate or nitrite assay.
The “level” of nitrate, nitrite, or other NO-related product usually refers to the concentration (in moles per liter, micromoles per liter, or other suitable units) of nitrate or nitrite in the specimen, or in the fluid portion of the specimen. However, other units of measure can also be used to express the level of nitrate or nitrite. For example, an absolute amount (in micrograms, milligrams, nanomoles, moles, or other suitable units) can be used, particularly if the amount refers back to a constant amount (e.g., grams, kilograms, milliliters, liters, or other suitable units) of the specimens under consideration. A number of commercially available kits can be used.

`CC(=O)Oc1ccc(CN(CCCN(C)c2nc(-n3ccnc3)ns2)Cc2ccc(OC(C)=O)cc2)cc1` [Example 35, Acetic acid 4-[((4-acetoxy-benzyl)-{3-[(3-imidazol-1-yl-[1,2,4]thiadiazol-5-yl)-methyl-amino]-propyl}-amino)-methyl]-phenyl ester] and `CN(CCCN(Cc1ccc(O)cc1)Cc1ccc(O)cc1)c1nc(-n2ccnc2)ns1` [Example 36, N-(3-Imidazol-1-yl-[1,2,4]thiadiazol-5-yl)-N′,N′-bis-(4-hydroxy-benzyl)-N-methyl-propane-1,3-diamine] cannot be ordered by EC50: under 1000 nM for the first, under 1000 nM for the second.

`Cc1cc(C2CCCN2CC(=O)NCc2ccc3c(c2)OCO3)nc(-n2ccnc2)n1` (centres unmarked) [Example 37, N-Benzo[1,3]dioxol-5-ylmethyl-2-[2-(2-imidazol-1-yl-6-methyl-pyrimidin-4-yl)-pyrrolidin-1-yl]-acetamide] and `Cc1cc(C2CCCN2CCNCc2ccc3c(c2)OCO3)nc(-n2ccnc2)n1` (centres unmarked) [Example 39, Benzo[1,3]dioxol-5-ylmethyl-{2-[2-(2-imidazol-1-yl-6-methyl-pyrimidin-4-yl)-pyrrolidin-1-yl]-ethyl}-amine] cannot be ordered by EC50: under 1000 nM for the first, under 1000 nM for the second.

`CNC(=O)C(CCCNCc1ccc2c(c1)OCO2)c1nc(-n2ccnc2)ns1` (centres unmarked) [Example 40, 5-[(Benzo[1,3]dioxol-5-ylmethyl)-amino]-2-(3-imidazol-1-yl-[1,2,4]thiadiazol-5-yl)-pentanoic acid methylamide] and `CC(NCCNCc1ccc2c(c1)OCO2)c1nc(-n2ccnc2)ns1` (centres unmarked) [Example 64, N-Benzo[1,3]dioxol-5-ylmethyl-N′-[1-(3-imidazol-1-yl-[1,2,4]thiadiazol-5-yl)-ethyl]-ethane-1,2-diamine] cannot be ordered by EC50: under 1000 nM for the first, under 1000 nM for the second.

`CCOC(=O)C(NC(=O)CNCc1ccc2c(c1)OCO2)c1cc(C)nc(-n2ccnc2)n1` (centres unmarked) [Example 41, {2-[(Benzo[1,3]dioxol-5-ylmethyl)-amino]-acetylamino}-(2-imidazol-1-yl-6-methyl-pyrimidin-4-yl)-acetic acid ethyl ester] and `CNC(=O)C(NC(=O)CNCc1ccc2c(c1)OCO2)c1cc(C)nc(-n2ccnc2)n1` (centres unmarked) [Example 42, 2-{2-[(Benzo[1,3]dioxol-5-ylmethyl)-amino]-acetylamino}-2-(2-imidazol-1-yl-6-methyl-pyrimidin-4-yl)-N-methyl-acetamide] cannot be ordered by EC50: under 1000 nM for the first, under 1000 nM for the second.

`Cc1cc(C(C)NCCOCc2ccc3c(c2)OCO3)nc(-n2ccnc2)n1` (centres unmarked) [Example 43, [2-(Benzo[1,3]dioxol-5-ylmethoxy)-ethyl]-[1-(2-imidazol-1-yl-6-methyl-pyrimidin-4-yl)-ethyl]-amine] and `CC(NCCOCc1ccc2c(c1)OCO2)c1nc(-n2ccnc2)ns1` (centres unmarked) [Example 65, [2-(Benzo[1,3]dioxol-5-ylmethoxy)-ethyl]-[1-(3-imidazol-1-yl-[1,2,4]thiadiazol-5-yl)-ethyl]-amine] cannot be ordered by EC50: under 1000 nM for the first, under 1000 nM for the second.

`Cc1cc(C(C)NCCNC(C)c2ccc3c(c2)OCO3)nc(-n2ccnc2)n1` (centres unmarked) [Example 44, N-(1-Benzo[1,3]dioxol-5-yl-ethyl)-N′-[1-(2-imidazol-1-yl-6-methyl-pyrimidin-4-yl)-ethyl]-ethane-1,2-diamine] and `Cc1cc(C(C)NCCNCc2ccc3c(c2)OCCO3)nc(-n2ccnc2)n1` (centres unmarked) [Example 45, N-(2,3-Dihydro-benzo[1,4]dioxin-6-ylmethyl)-N′-[1-(2-imidazol-1-yl-6-methyl-pyrimidin-4-yl)-ethyl]-ethane-1,2-diamine] cannot be ordered by EC50: under 1000 nM for the first, under 1000 nM for the second.

`CN(CC1CCN(Cc2ccc3c(c2)OCO3)C1)c1nc(-n2ccnc2)ns1` (centres unmarked) [Example 46, (1-Benzo[1,3]dioxol-5-ylmethyl-pyrrolidin-3-ylmethyl)-(3-imidazol-1-yl-[1,2,4]thiadiazol-5-yl)-methyl-amine] and `CN(CCNCc1ccc2c(c1)OCO2)c1nc(-n2ccnc2)ns1` [Example 47, N′-Benzo[1,3]dioxol-5-ylmethyl-N-(3-imidazol-1-yl-[1,2,4]thiadiazol-5-yl)-N-methyl-ethane-1,2-diamine] cannot be ordered by EC50: under 1000 nM for the first, under 1000 nM for the second.

`CN(CCCCNCc1ccc2c(c1)OCO2)c1nc(-n2ccnc2)ns1` [Example 48, N′-Benzo[1,3]dioxol-5-ylmethyl-N-(3-imidazol-1-yl-[1,2,4]thiadiazol-5-yl)-N-methyl-butane-1,4-diamine] and `N#CCN(CCCNCc1ccc2c(c1)OCO2)c1nc(-n2ccnc2)ns1` [Example 60, [{3-[(Benzo[1,3]dioxol-5-ylmethyl)-amino]-propyl}-(3-imidazol-1-yl-[1,2,4]thiadiazol-5-yl)-amino]-acetonitrile] cannot be ordered by EC50: under 1000 nM for the first, under 1000 nM for the second.

`NCCCN(Cc1nccs1)c1nc(-n2ccnc2)ns1` [Example 52, N′-(3-Imidazol-1-yl-[1,2,4]thiadiazol-5-yl)-N′-thiazol-2-ylmethyl-propane-1,3-diamine] and `CCOC(=O)CN(CCCN(C)Cc1ccc2c(c1)OCO2)c1nc(-n2ccnc2)ns1` [Example 58, [[3-(Benzo[1,3]dioxol-5-ylmethyl-methyl-amino)-propyl]-(3-imidazol-1-yl-[1,2,4]thiadiazol-5-yl)-amino]-acetic acid ethyl ester] cannot be ordered by EC50: under 1000 nM for the first, under 1000 nM for the second.

`CCOC(=O)CN(CCCNCc1ccc2c(c1)OCO2)c1nc(-n2ccnc2)ns1` [Example 53, [{3-[(Benzo[1,3]dioxol-5-ylmethyl)-amino]-propyl}-(3-imidazol-1-yl-[1,2,4]thiadiazol-5-yl)-amino]-acetic acid ethyl ester] and `NC(=O)CN(CCCNCc1ccc2c(c1)OCO2)c1nc(-n2ccnc2)ns1` [Example 54, 2-[{3-[(Benzo[1,3]dioxol-5-ylmethyl)-amino]-propyl}-(3-imidazol-1-yl-[1,2,4]thiadiazol-5-yl)-amino]-acetamide] cannot be ordered by EC50: under 1000 nM for the first, under 1000 nM for the second.

`O=C(O)CN(CCCNCc1ccc2c(c1)OCO2)c1nc(-n2ccnc2)ns1` [Example 55, [{3-[(Benzo[1,3]dioxol-5-ylmethyl)-amino]-propyl}-(3-imidazol-1-yl-[1,2,4]thiadiazol-5-yl)-amino]-acetic acid] and `CNC(=O)CN(CCCNCc1ccc2c(c1)OCO2)c1nc(-n2ccnc2)ns1` [Example 56, 2-[{3-[(Benzo[1,3]dioxol-5-ylmethyl)-amino]-propyl}-(3-imidazol-1-yl-[1,2,4]thiadiazol-5-yl)-amino]-N-methyl-acetamide] cannot be ordered by EC50: under 50000 nM for the first, under 1000 nM for the second.

`CN(C)C(=O)CN(CCCNCc1ccc2c(c1)OCO2)c1nc(-n2ccnc2)ns1` [Example 57, 2-[{3-[(Benzo[1,3]dioxol-5-ylmethyl)-amino]-propyl}-(3-imidazol-1-yl-[1,2,4]thiadiazol-5-yl)-amino]-N,N-dimethyl-acetamide] and `N=C(CN(CCCNCc1ccc2c(c1)OCO2)c1nc(-n2ccnc2)ns1)NO` [Example 63, 2-[{3-[(Benzo[1,3]dioxol-5-ylmethyl)-amino]-propyl}-(3-imidazol-1-yl-[1,2,4]thiadiazol-5-yl)-amino]-N-hydroxy-acetamidine] cannot be ordered by EC50: under 1000 nM for the first, under 1000 nM for the second.

`c1cn(-c2nsc(N(CCCNCc3ccc4c(c3)OCO4)Cc3nnn[nH]3)n2)cn1` [Example 61, N′-Benzo[1,3]dioxol-5-ylmethyl-N-(3-imidazol-1-yl-[1,2,4]thiadiazol-5-yl)-N-(1H-tetrazol-5-ylmethyl)-propane-1,3-diamine] and `CNNC(=N)CN(CCCNCc1ccc2c(c1)OCO2)c1nc(-n2ccnc2)ns1` [Example 62, 2-[{3-[(Benzo[1,3]dioxol-5-ylmethyl)-amino]-propyl}-(3-imidazol-1-yl-[1,2,4]thiadiazol-5-yl)-amino]-acetamidine N′-methyl-hydrazide] cannot be ordered by EC50: under 1000 nM for the first, under 1000 nM for the second.
